Measurements reported in PMC7254530 (ACS Omega, 2020).
Where two headings read alike, the source gives them in different places.

Assays:
S. aureus USA300 [1] = assay type: in vivo, C57BL/6J male mice; settings: for survival rate: 96 h; for activity of β-lactamases in bronchoalveolar lavage fluid: 36 h
[2] = system: E. coli ZJ487 (NDM-1/MCR-1); assay: microbe, parasite or virus in culture; assay type: cell-based, Escherichia coli; settings: for MIC: Escherichia coli; for MIC of Mep combination: Mep with the named analogue at 32 μg/mL; for FIC Index: analogue + Mep; for MIC of analogues of OA combination: analogue with Mep
NDM-1 = NDM-1 (Escherichia coli, UniProt E5KIY2); assay type: biochemical, E. coli; settings: OA analogues, Figure 3G
E. coli ZJ478 = assay type: in vivo, C57BL/6J male mice; settings: for survival rate: 120 h
suilysin (SLY) = suilysin (SLY) (Streptococcus suis, UniProt Q55996); assay: biochemical
NDM-1 F240A = NDM-1 F240A (Klebsiella pneumoniae, UniProt C7C422, F240A); assay: biochemical; assay type: binding
OXA-1 = OXA-1 (Escherichia coli, UniProt P13661); assay: biochemical; parameters: species or system E. coli; settings: IC50, purified OXA-1
S. aureus USA300 [3] = assay type: cell-based, Staphylococcus aureus; settings: OA combined with penicillin G
[4] = system: E. coli BL21 (pET28a-SP-NDM-1); assay type: cell-based, Escherichia coli; settings: OA 32 μg/mL with Mep; postinoculation
E. coli ZJ487 = assay type: cell-based, Escherichia coli; settings: OA 32 μg/mL with Mep; postinoculation
TEM-1 = TEM-1 (Escherichia coli, UniProt P62593); assay: biochemical; settings: IC50, purified TEM-1
A549 cells = assay type: cell-based, human; settings: 6 h
MH-S cells = assay type: cell-based, mouse; settings: 6 h
[5] = system: NDM-1-Asp199Ala, NDM-1-Thr201Ala, and NDM-1-Phe240Ala; assay type: biochemical
[6] = system: AmpC β-lactamase, E. coli BL21 (pET21a); assay type: biochemical; settings: co-culture or co-incubation with OA
[7] = monotherapy 50 mg/kg subcutaneous every 8 h
[8] = read-out: MIC of analogues of OA alone, ZJ487, Table 1, median (range)
[9] = named compound combined with Mep 5 mg/kg
[10] = OA combined with penicillin G, 36 h postinfection

Sequence of TEM-1 (P62593 24-286 limits assumed): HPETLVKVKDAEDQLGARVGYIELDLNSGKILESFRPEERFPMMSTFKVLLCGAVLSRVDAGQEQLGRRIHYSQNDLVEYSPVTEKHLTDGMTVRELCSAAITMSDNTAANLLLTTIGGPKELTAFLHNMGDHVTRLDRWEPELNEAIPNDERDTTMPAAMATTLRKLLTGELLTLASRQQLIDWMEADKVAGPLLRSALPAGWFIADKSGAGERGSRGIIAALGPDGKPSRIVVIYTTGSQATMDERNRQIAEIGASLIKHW
Sequence of OXA-1 (P13661 26-276): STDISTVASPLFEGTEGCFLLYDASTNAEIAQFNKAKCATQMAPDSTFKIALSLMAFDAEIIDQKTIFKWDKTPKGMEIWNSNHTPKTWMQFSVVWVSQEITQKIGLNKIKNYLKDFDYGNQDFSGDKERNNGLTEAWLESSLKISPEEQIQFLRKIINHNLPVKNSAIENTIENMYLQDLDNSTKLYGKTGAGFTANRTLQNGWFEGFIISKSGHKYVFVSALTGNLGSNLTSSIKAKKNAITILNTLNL

CC1(C)S[C@@H]2[C@H](NC(=O)Cc3ccccc3)C(=O)N2[C@H]1C(=O)O [Penicillin G, penicillin G, reference compound]
survival rate (S. aureus USA300 [1]; [7]): 25.0%
activity of β-lactamases in bronchoalveolar lavage fluid (S. aureus USA300 [1]; monotherapy): such inhibition was not observed

CC1(C)[C@@H](O[C@H]2O[C@H](C(=O)O)[C@@H](O)[C@H](O)[C@H]2O[C@@H]2O[C@H](C(=O)O)[C@@H](O)[C@H](O)[C@H]2O)CC[C@]2(C)[C@H]3C(=O)C=C4[C@@H]5C[C@@](C)(C(=O)O)CC[C@]5(C)CC[C@@]4(C)[C@]3(C)CC[C@@H]12 [glycyrrhizic acid]
MIC [2, 8]: 512 µg/mL
MIC of Mep combination ([2]; ZJ487, median (range)): 8(4–16) μg/mL
FIC Index ([2]; ZJ487): 0.40 ± 0.14
MIC of analogues of OA combination ([2]; ZJ487): 32 μg/mL

α-boswellic acid
MIC of Mep combination ([2]; ZJ487, median (range)): 16(16) μg/mL
MIC of analogues of OA alone ([2]; ZJ487, Table 1, median (range)): 512(≥512) μg/mL
FIC Index ([2]; ZJ487): 0.73 ± 0.29
MIC of analogues of OA combination ([2]; ZJ487): 32 μg/mL

C[C@H]1[C@H](C)CC[C@]2(C(=O)O)CC[C@]3(C)C(=CC[C@@H]4[C@@]5(C)C[C@@H](O)[C@H](O)C(C)(C)[C@@H]5CC[C@]43C)[C@H]12 [corosolic acid]
inhibitory effect against NDM-1 (NDM-1): robust inhibitory effects
survival rate (E. coli ZJ478; [9]): 77.8%
MIC [2, 8]: 512 µg/mL
MIC of Mep combination ([2]; ZJ487, median (range)): 2(2–4) μg/mL
FIC Index ([2]; ZJ487): 0.17 ± 0.04
MIC of analogues of OA combination ([2]; ZJ487): 32 μg/mL
IC50 (suilysin (SLY)): < 2120 nM

C[C@H]1[C@H](C)CC[C@]2(C(=O)O)CC[C@]3(C)C(=CC[C@@H]4[C@@]5(C)CC[C@H](O)C(C)(C)[C@@H]5CC[C@]43C)[C@H]12 [ursolic acid]
inhibitory effect against NDM-1 (NDM-1): robust inhibitory effects
MIC [2, 8]: 512 µg/mL
MIC of Mep combination ([2]; ZJ487, median (range)): 2(2–4) μg/mL
FIC Index ([2]; ZJ487): 0.17 ± 0.04
MIC of analogues of OA combination ([2]; ZJ487): 32 μg/mL

C[C@@H](O)[C@H]1C(=O)N2C(C(=O)O)=C(S[C@@H]3CN[C@H](C(=O)N(C)C)C3)[C@H](C)[C@H]12 [Meropenem, meropenem, reference compound]
survival rate (E. coli ZJ478; Mep 5 mg/kg alone, subcutaneous every 8 h): 44.4%
MIC ([2]; read-out: MIC of Mep alone, ZJ487, Table 1, median (range)): 32 µg/mL
MIC of Mep alone ([2]; ZJ487, Table 1, median (range), listed as Mep): 16(16–32) μg/mL

CC1(C)CC[C@]2(C(=O)O)CC[C@]3(C)C(=CC[C@@H]4[C@@]5(C)CC[C@H](O)C(C)(C)[C@@H]5CC[C@]43C)[C@@H]2C1 [OA, oleanolic acid]
Kd (NDM-1 F240A): 14.3 µM
IC50 (OXA-1): > 109 µM
survival rate (S. aureus USA300 [1]; OA 50 mg/kg combined with penicillin G 50 mg/kg, subcutaneous every 8 h): 75.0%
lung lesions (S. aureus USA300 [1]; OA combined with penicillin G): greatly alleviated
IL-1β, IL-6, and TNF-α levels in bronchoalveolar lavage fluid (S. aureus USA300 [1]; [10]): significant decreases
number of bacteria in the lungs (S. aureus USA300 [1]; [10]): significant reduction
bacterial burden and inflammatory responses (S. aureus USA300 [1]; OA monotherapy): also inhibited
survival rate (S. aureus USA300 [1]; [7]): 43.8%
activity of β-lactamases in bronchoalveolar lavage fluid (S. aureus USA300 [1]; monotherapy): inhibited
activity of β-lactamases in bronchoalveolar lavage fluid (S. aureus USA300 [1]; penicillin G combined with OA): inhibited
bactericidal effect (S. aureus USA300 [3]): significantly eliminate, but not thoroughly kill
time to complete elimination [4]: ≤ 6 h
time to complete elimination (E. coli ZJ487): ≤ 3 h
E. coli colonization in the liver and spleen (E. coli ZJ478; OA combined with Mep, 36 h postinfection): significantly inhibited
survival rate (E. coli ZJ478; [9]): 61.1%
IC50 (TEM-1): > 109 µM
concentration protecting cells from hemolysin-mediated cell injury (A549 cells): 1 to 4 µg/mL
concentration protecting cells from hemolysin-mediated cell injury (MH-S cells): 1 to 4 µg/mL
inhibitory effect on activity of NDM-1 mutants [5]: significant inhibitory effect was not detected
inhibitory effect on β-lactamase activity in culture supernatant [6]: No significant inhibitory effect

CC1(C)CC[C@]2(C(=O)O)CC[C@]3(C)C(=CC[C@@H]4[C@@]5(C)C[C@@H](O)[C@H](O)[C@@](C)(CO)[C@@H]5CC[C@]43C)[C@@H]2C1 [arjunolic acid]
MIC [2, 8]: 512 µg/mL
MIC of Mep combination ([2]; ZJ487, median (range)): 8(4–16) μg/mL
FIC Index ([2]; ZJ487): 0.40 ± 0.14
MIC of analogues of OA combination ([2]; ZJ487): 32 μg/mL

CC1(C)CC[C@]2(C(=O)O)CC[C@]3(C)C(=CC[C@@H]4[C@@]5(C)C[C@@H](O)[C@H](O)C(C)(C)[C@@H]5CC[C@]43C)[C@@H]2C1 [maslinic acid]
MIC [2, 8]: 512 µg/mL
MIC of Mep combination ([2]; ZJ487, median (range)): 4(2–4) μg/mL
FIC Index ([2]; ZJ487): 0.38 ± 0.00
MIC of analogues of OA combination ([2]; ZJ487): 32 μg/mL
